Source: patent publication US7279502B2, “Polyamine analog conjugates and quinone conjugates as therapies for cancers and prostate diseases” (Cellgate, Inc., priority 1999, dated 2007)
Like-named read-outs stand apart in the source and are kept apart here.

Tests used:
[1] = Creaven et al. (1997); cited from earlier work
[2] = rats, Kanter et al. (1994); cited from earlier work
[3] = tested on: prostate xenograft tumors; conditions: nude mice; cited from earlier work
[4] = tested on: A549 human large cell hung carcinoma; conditions: constant infusion via Alzet pump delivery for 5 days; cited from earlier work
[5] = in one study; cited from earlier work
[6] = tested on: human prostate adenocarcinoma cell line DU145; assay: MTT assay, quinones, DU145; type: cell-based; conditions: DU-145, Table 3, treatment time not given in cell, read-out: ID50 DU145
Experimental: (§1) Cell Culture: The human lung adenocarcinoma cell line, A549, and human prostatic cancer cell line, DUPRO, were a gift from Dr. M. Eileen Dolan, University of Chicago, Department of Medicine. A549 was grown in Ham's F-12K medium (Fisher Scientific, Itasca, Ill.) supplemented with 10% fetal bovine serum and 2 mM L-glutamine. DUPRO was grown in RPMI-1640 supplemented with 10% fetal bovine serum. The human colon carcinoma cell line, HT29, and the human breast carcinoma cell line, MCF7, were obtained from the American Type Culture Collection, Rockville, Md. HT29 cells were grown in McCoy's 5A medium (Gibco, BRL, Gaithersburg, Md.) supplemented with 10% fetal bovine serum. MCF7 cells were grown in Richter's Improved Modified Eagle's medium supplemented with 10% fetal bovine serum and 2.2 g/L sodium bicarbonate. The human prostate adenocarcinoma cell lines, LNCAP, PC-3 and DU145, were gifts from Dr. George Wilding, University of Wisconsin Comprehensive Cancer Center and the Department of Medicine, and were grown in Dulbecco's Modified Eagle's medium supplemented with a 5% fetal bovine serum. The malignant glioma cell line, U251MG NCI was obtained from the brain tumor tissue bank at the University of California, San Francisco Department of Neurosurgery, and was grown in Dulbecco's Modified Eagle's medium supplemented wth 10% fetal bovine serum. DUPRO, A549 and MCF7 cells were grown in 100 units/mL penicillin and 100 μg/mL streptomycin. HT29 and U251MG NCI cells were grown in 50 μg/mL gentamycin. LNCAP, PC-3 and DU145 cells were maintained in 1% antibiotic antimycotic solution (Sigma, St. Louis, Mo.). All cell cultures were maintained at 37° C. in 5% CO2/95% humidified air.
(§2) MTT assay. Exponentially growing monolayer cells were plated in 96 well plates at a density of 500 cells/well and allowed to grow for 24 h. Serially diluted drug solutions were added such that the final drug concentrations in the treatment media were between 0 and 35 μM. […] A microplate reader (E max, Molecular Devices, Sunnyvale, Calif.) set at 570 nm was used to determine the optical density. […]

[7] = tested on: human prostate adenocarcinoma cell line PC-3; assay: MTT assay, quinones, PC-3; type: cell-based; conditions: Table 3, treatment time not given in cell, read-out: ID50 PC-3
Experimental: as §1
(§3) MTT assay. Exponentially growing monolayer cells were plated in 96 well plates at a density of 500 cells/well and allowed to grow for 24 h. Serially diluted drug solutions were added such that the final drug concentrations in the treatment media were between 0 and 35 μM. Cells were incubated with drug at either 4 hr or 72 hr. After 4 hr and 72 hr treatment, drugs were removed, fresh media (without) drug (100 uL) was added and cells were incubated for 6 days. After six days, 25 μL of a Dulbecco's phosphate-buffered saline solution containing 5 mg/mL of MTT (Thiazolyl blue) (Sigma) was added to each well and incubated for 4 h at 37° C. Then 100 μL of lysis buffer (20% sodium dodecyl sulfate, 50% N,N-dimethylformamide and 0.8% acetic acid, pH 4.7) was added to each well and incubated for an additional 22 h. A microplate reader (E max, Molecular Devices, Sunnyvale, Calif.) set at 570 nm was used to determine the optical density. Results were plotted as a ratio of the optical density in drug treated wells to the optical density in wells treated with vehicle alone. Plotting and estimation of ID50 values were accomplished with manufacturer supplied software. The data is presented below in Tables 3, 4, 5 and 6.

[8] = tested on: human prostatic cancer cell line, DUPRO; assay: MTT assay, quinones, DUPRO; type: cell-based; conditions: Table 3, treatment time not given in cell, read-out: ID50 DUPRO
Experimental: as §1, §2

[9] = tested on: malignant glioma cell line, U251MG NCI; assay: MTT assay, quinones, U251MG NCI; type: cell-based, human; conditions: read-out: ID50 Brain U251-MG
Experimental: as §1, with “The malignant glioma cell line, U251MG NCI was obtained from the brain tumor tissue bank at the University of California, San Francisco Department of Neurosurgery, and was grown in Dulbecco's Modified Eagle's medium supplemented wth 10% fetal bovine serum. DUPRO, A549 and MCF7 cells were grown in 100 units/mL penicillin and 100 μg/mL streptomycin. HT29 and U251MG NCI cells were grown in 50 μg/mL gentamycin. LNCAP, PC-3 and DU145 cells were maintained in 1% antibiotic antimycotic solution (Sigma, St. Louis, Mo.). All cell cultures were maintained at 37° C. in 5% CO2/95% humidified air.” left out
MTT assay. […] A microplate reader (E max, Molecular Devices, Sunnyvale, Calif.) set at 570 nm was used to determine the optical density. […]

[10] = tested on: human breast carcinoma cell line, MCF7; assay: MTT assay, quinones, MCF7; type: cell-based; conditions: Table 4, treatment time not given in cell, read-out: ID50 Breast MCF7
Experimental: as §1, §3

[11] = tested on: human prostate cancer cells LNCAP; assay: MTT assay, polyamine analogs, LNCAP; type: cell-based; conditions: survival of cultured LNCAP cells, figure legends, read-out: ED50 (the source's name)
Experimental: (§4) Human breast cancer cell line MCF7 was grown in Richter's Improved Modified Eagle's Medium supplemented with 10% fetal bovine serum (FBS) and 2.2 g/L sodium bicarbonate. Human brain tumor cell line U251 MG-NCI was grown in Dulbecco's Modified Eagle's Medium supplemented with 10% FBS. Human lung cancer cell line A549 was grown in Ham's F-12K medium (Cellgro, Mediatech, Inc., VA), supplemented with 10% FBS and 2 mM L-glutamine. Human colon cancer cell line HT29 was cultured in McCoy's 5A medium (Gibco, BRL, Gaithersburg, Md.) supplemented with 10% FBS. Human prostate cancer cell lines PC-3, LNCAP and DuPro were grown in RPMI 1640 Medium (Cellgro, Mediatech, Inc., VA) supplemented with 10% FBS. Another human prostate cancer cell line DU145 was grown in Dulbecco's Modified Eagle's Medium (Gibco, BRL, Gaithersburg, Md.) supplemented with 5% FBS. The A549, MCF7, PC3, LNCAP and DuPro cell lines were cultured in 100 units/mL penicillin and 100 μg/mL streptomycin. HT29 and U251MG cell lines were grown in 50 μg/mL gentamycin (Gibco, BRL, Gaithersburg, Md.). DU145 cell line was maintained in 1% antibitic-antimycotic solution (Sigma, St. Louis, Mo.). The cell cultures were maintained at 37° C. in 5% CO2/95% humidified air. DuPro cells were obtained from M. Eileen Dolan, University of Chicago. All other cells are available from the American Type Culture Collection, Rockville, Md.
A conventional MTT assay was used to evaluate percent cell survival. Exponentially growing monolayer cells were plated in 96-well plates at a density of 500 cells per well and allowed to grow for 24 hours. Serial dilutions of the drugs were added to the wells. Six days after drug treatment, 25 μl of MTT solution (5 mg/ml) was added to each well and incubated for 4 hours at 37° C. […] A microplate reader (“EMAX”-brand, Molecular Devices, Sunnyvale, Calif.) set at 570 nm was used to determine the optical density of the cultures. Results are expressed as a ratio of the optical density in drug-treated wells to the optical density in wells treated with vehicle only.

[12] = tested on: human prostate cancer cells DU145; assay: MTT assay, polyamine analogs, DU145; type: cell-based; conditions: for EC50: figure legends, read-out: ED50 (the source's name)
Experimental: as §4
(§5) A conventional MTT assay was used to evaluate percent cell survival. Exponentially growing monolayer cells were plated in 96-well plates at a density of 500 cells per well and allowed to grow for 24 hours. Serial dilutions of the drugs were added to the wells. Six days after drug treatment, 25 μl of MTT solution (5 mg/ml) was added to each well and incubated for 4 hours at 37° C. Then 100 μl of lysis buffer (20% sodium dodecyl sulfate, 50% DMF, and 0.8% acetic acid, pH 4.7) was added to each well and incubated for an additional 22 hours. A microplate reader (“EMAX”-brand, Molecular Devices, Sunnyvale, Calif.) set at 570 nm was used to determine the optical density of the cultures. Results are expressed as a ratio of the optical density in drug-treated wells to the optical density in wells treated with vehicle only.

[13] = tested on: human prostate cancer cells PC3; assay: MTT assay, polyamine analogs, PC3; type: cell-based; conditions: PC-3, survival of cultured PC3 cells, figure legends, read-out: ED50 (the source's name)
Experimental: as §4, §5

[14] = tested on: human colon cancer cells HT29; assay: MTT assay, polyamine analogs, HT29; type: cell-based; conditions: for EC50: HT-29, survival of cultured HT29 cells, figure legends, read-out: ED50 (the source's name)
Experimental: (§6) As shown in Table 2 and FIGS. 1-32, several novel conformationally restricted polyamine analogs were tested for anti-proliferative properties against cancer cells.
as §4, §5

[15] = tested on: human lung cancer cells A549; assay: MTT assay, polyamine analogs, A549; type: cell-based; conditions: Homo sapiens; for EC50: A549, survival of cultured A549 cells, figure legends, read-out: ED50 (the source's name)
Experimental: as §6, §4, §5

[16] = tested on: human brain tumor cells U251 MG NCI; assay: MTT assay, polyamine analogs, U251 MG NCI; type: cell-based; conditions: for EC50: U-251, survival of cultured U251 MG NCI cells, figure legends, read-out: ED50 (the source's name)
Experimental: as §4, §5

[17] = tested on: human breast cancer cells MCF7; assay: MTT assay, polyamine analogs, MCF7; type: cell-based
Experimental: as §6, §4, §5

[18] = tested on: human prostate cancer cells DUPRO; assay: MTT assay, polyamine analogs, DUPRO; type: cell-based; conditions: for EC50: survival of cultured DUPRO cells, figure legends, read-out: ED50 (the source's name)
Experimental: as §4, §5

[19] = tested on: tumor cell lines; assay: In vitro anti-proliferative testing, summary statements; type: cell-based, human; conditions: FIGS. 57-59: PC3, DUPRO, LNCAP
Experimental: as §5

[20] = Homo sapiens, DU-145, survival of cultured DU145 cells

CCNCCCNCCCNCCCNCC [BE-333, N1,N11-diethylnorspermine]
side effects [1]: headache, nausea and vomiting, unilateral weakness, dysphagia, dysarthria, numbness, paresthesias, and ataxia | toxicity on administration [2]: labored breathing, convulsive movements and acute death | inhibition of prostate xenograft tumors [3]: particularly effective in inhibiting prostate xenograft tumors in nude mice | anti-tumor activity, effect of schedule [4]: dramatically improves the anti-tumor activity

CCNCCCNCCCCCCCNCCCNCC [BE-373]
inhibition of prostate xenograft tumors [3]: particularly effective in inhibiting prostate xenograft tumors in nude mice

CCNCCCCNCCCCNCCCCNCCCCNCC [BE-4444, 1,19-bis(ethylamino)-5,10,15-triazanonadecane]
inhibition of prostate xenograft tumors [3]: particularly effective in inhibiting prostate xenograft tumors in nude mice

CC(/C=N/NC(=N)N)=N\NC(=N)N [MGBG, methylglyoxal-bis-guanylhydrazone]
side effects, drug deaths [5]: drug deaths occurred in over half of treated animals

O=C1C=C(OCCCCCCO)c2ccccc2C1=O [SL-11051]
IC50 [6]: 11.2 µM | IC50 [7]: 17.1 µM | IC50 [8]: 19.3 µM

CC1(C)CCC2=C(O1)c1ccccc1C(=O)C2=O [SL-11058]
IC50 ([9]; Table 6, non-quinone compounds): > 31.2 µM

O=C1C=C(OCCCCCNC2CCCCC2)c2ccccc2C1=O [SL-11060]
IC50 [10]: 17.2 µM | IC50 ([9]; Homo sapiens, U-251, Table 4, treatment time not given in cell): > 31.2 µM

O=C1C=C(OCCCCCCCc2ccc(Nc3c4ccccc4nc4ccccc34)cc2)c2ccccc2C1=O [SL-11064, Quinone-anilinoacridine]
IC50 [6]: 0.13 µM | IC50 [7]: 0.7 µM | IC50 [8]: 2.2 µM

CCNCCCCNCC1CC1CNCCCCNCC (centres unmarked) [SL-11093]
EC50 ([11]; Homo sapiens, LNCaP): 0.21 µM | EC50 [12, 20]: 0.016 µM | EC50 [13]: 1.6 µM | EC50 [14]: 0.4 µM | EC50 [15]: 0.26 µM | EC50 [16]: 0.07 µM

CCNC/C=C\CNC/C=C\CNC/C=C\CNCC [SL-11108]
EC50 ([11]; Homo sapiens, LNCaP): 7.7 µM | IC50 ([12]; Homo sapiens, DU-145, 144 h, read-out: concentration needed for 50% growth inhibition (ID50) DU-145, Table 2, MTT six days after drug treatment): 0.13 µM | EC50 [12, 20]: 0.13 µM | EC50 [13]: 2.2 µM | IC50 ([14]; HT-29, 144 h, read-out: concentration needed for 50% growth inhibition (ID50) HT-29, Table 2, MTT six days after drug treatment): 2 µM | EC50 [14]: 2 µM | IC50 ([17]; MCF7, 144 h, read-out: concentration needed for 50% growth inhibition (ID50) MCF7, Table 2, MTT six days after drug treatment): > 31.2 µM | EC50 ([17]; MCF7, survival of cultured MCF7 cells, figure legends, read-out: ED50 (the source's name)): > 31.2 µM | IC50 ([15]; A549, 144 h, read-out: concentration needed for 50% growth inhibition (ID50) A549, Table 2, MTT six days after drug treatment): > 31.2 µM | EC50 [15]: > 31.2 µM | IC50 ([18]; Homo sapiens, DuPro, 144 h, read-out: concentration needed for 50% growth inhibition (ID50) DUPRO, Table 2, MTT six days after drug treatment): 0.98 µM | EC50 ([18]; Homo sapiens, DuPro): 0.98 µM | IC50 ([16]; U-251, 144 h, read-out: concentration needed for 50% growth inhibition (ID50) U251MG, Table 2, MTT six days after drug treatment): 2 µM | EC50 [16]: 2 µM

O=C1C=C(CCCCCCCCc2ccc(Nc3c4ccccc4nc4ccccc34)cc2)c2ccccc2C1=O [SL-11125, Quinone-acridine]
IC50 [6]: 0.13 µM | IC50 [10]: 5.1 µM | IC50 [7]: 5.9 µM | IC50 [8]: 7.9 µM

CCNCCCCNCCCCNCCCCNCCCCNCCO [SL-11141]
effectiveness against tumor cell lines in vitro [19]: display effectiveness against tumor cell lines in vitro

CCNCCCCNCCCCNCCCCNCCCCNC/C=C\CNCCCCNCCCCNCCCCNCCCCNCC [SL-11150]
EC50 [11]: 0.23 µM | EC50 ([12]; survival of cultured DU145 cells): 0.11 µM | EC50 [18]: 0.48 µM
